The conditions of series [1]: cited from earlier work.
Another series in a line: physchem. The conditions noted are these: water.
For series [2] the following is noted: background statement; cited from earlier work.

The term solubility denotes how much of the substance goes into solution per volume. Low values mean a poorly soluble substance, high ones a readily soluble substance.

Regarding `CC(C)c1cccc(=O)c(O)c1` [hinokitiol], the “solubility in water at 25° C.” value in series [1] is reported as “about 0.12%”. Moreover, the solubility in “physchem” is not above 5 mM. In addition, the “bactericidal and bacteriostatic activity” value in series [2] is recorded as “strong”.

Values taken from patent publication US4675395A, “Cyclodextrin inclusion compound and process for its preparation” (Seiwa Technological Laboratories Limited, priority 1985, dated 1987).
